pIC50: −log10 of the molar value.
System: T1, Hyperpolarization-activated cyclic nucleotide-gated (HCN) channels (native, isoform not resolved)
T1 construct: native HCN current (Ih) in striatal cholinergic interneurons, acute slices
Assay: whole-cell voltage-clamp of Ih in striatal slices, concentration-response
Assay type: cell-based, Mus musculus
From the text: whole-cell voltage-clamp of Ih in striatal slices, concentration-response on Hyperpolarization-activated cyclic nucleotide-gated (HCN) channels (native, isoform not resolved) | Dependence of Ih density (as measured on Figure 3E) on ZD7288 concentration.

CC/[N+](c1ccccc1)=c1\cc(NC)n(C)c(C)n1 [ZD7288]
pIC50: 5.85

Source: PMC7380940, “Alterations in the intrinsic properties of striatal cholinergic interneurons after dopamine lesion and chronic L-DOPA” (eLife, 2020)
